Experimental data reported in PMC5218480 (PLoS ONE, 2017).

Tested on: MV-4-11 cells
Assay: Gene expression microarray analysis (Affymetrix PrimeView) and GSEA
Type: cell-based, human
Parameters: RFU PODN (11730768_x_at) / Fold change /veh PODN (11730768_x_at) / RFU LINC00158 (11744669_a_at) / Fold change /veh LINC00158 (11744669_a_at) / RFU DUSP10 (11751237_a_at) / Fold change /veh DUSP10 (11751237_a_at) / RFU ID3 (11757404_x_at) / Fold change /veh ID3 (11757404_x_at) / RFU PLEKHG5 (11737974_s_at) / Fold change /veh PLEKHG5 (11737974_s_at) / RFU LRRC4B (11730491_at) / Fold change /veh LRRC4B (11730491_at) / RFU GIMAP4 (11747438_a_at) / Fold change /veh GIMAP4 (11747438_a_at) / RFU KRT8 (11758183_x_at) / Fold change /veh KRT8 (11758183_x_at) / RFU CNN1 (11734310_a_at) / Fold change /veh CNN1 (11734310_a_at) / RFU VPS37D (11726825_at) / Fold change /veh VPS37D (11726825_at) / RFU C10orf10 (11716522_x_at) / Fold change /veh C10orf10 (11716522_x_at) / RFU KIR2DL2 /// KIR2DL4 /// KIR2DL5A /// KIR2DL5B /// KIR2DS1 /// KIR2DS2 /// KIR2DS3 /// KIR2DS4 /// KIR3DL3 /// KIR3DL3 /// KIR3DS1 (11738374_at) / Fold change /veh KIR2DL2 /// KIR2DL4 /// KIR2DL5A /// KIR2DL5B /// KIR2DS1 /// KIR2DS2 /// KIR2DS3 /// KIR2DS4 /// KIR3DL3 /// KIR3DL3 /// KIR3DS1 (11738374_at) / RFU C1QL1 (11718748_at) / Fold change /veh C1QL1 (11718748_at) / RFU TMPRSS4 (11747572_a_at) / Fold change /veh TMPRSS4 (11747572_a_at) / RFU HAMP (11756126_x_at) / Fold change /veh HAMP (11756126_x_at) / RFU RNFT2 (11725882_a_at) / Fold change /veh RNFT2 (11725882_a_at) / RFU NR4A2 (11747474_a_at) / Fold change /veh NR4A2 (11747474_a_at) / RFU ABCC12 (11746883_a_at) / Fold change /veh ABCC12 (11746883_a_at) / RFU TMEM136 (11760407_x_at) / Fold change /veh TMEM136 (11760407_x_at) / RFU CLDN22 /// WWC2 (11732394_at) / Fold change /veh CLDN22 /// WWC2 (11732394_at) / RFU HLA-DPB1 (11760878_x_at) / Fold change /veh HLA-DPB1 (11760878_x_at) / RFU SPINT1 (11716480_a_at) / Fold change /veh SPINT1 (11716480_a_at) / RFU GAP43 (11754022_s_at) / Fold change /veh GAP43 (11754022_s_at) / RFU A4GNT (11735810_at) / Fold change /veh A4GNT (11735810_at) / RFU PRB3 (11715151_x_at) / Fold change /veh PRB3 (11715151_x_at) / RFU TUBB4B (11761932_at) / Fold change /veh TUBB4B (11761932_at) / RFU CAPN14 (11732068_a_at) / Fold change /veh CAPN14 (11732068_a_at) / RFU TMCC2 (11721928_a_at) / Fold change /veh TMCC2 (11721928_a_at) / RFU IRGQ (11745062_a_at) / Fold change /veh IRGQ (11745062_a_at) / RFU FAM174B (11720279_a_at) / Fold change /veh FAM174B (11720279_a_at) / RFU TMPRSS4 (11748680_a_at) / Fold change /veh TMPRSS4 (11748680_a_at) / RFU FAM212B (11763350_a_at) / Fold change /veh FAM212B (11763350_a_at) / RFU PLEKHG5 (11743358_a_at) / Fold change /veh PLEKHG5 (11743358_a_at) / RFU ZSCAN30 (11745921_a_at) / Fold change /veh ZSCAN30 (11745921_a_at) / RFU CMKLR1 (11741424_a_at) / Fold change /veh CMKLR1 (11741424_a_at) / RFU LOC101060620 /// MAPK8IP1 (11723275_at) / Fold change /veh LOC101060620 /// MAPK8IP1 (11723275_at) / RFU SPTSSB (11747773_x_at) / Fold change /veh SPTSSB (11747773_x_at) / RFU PRSS12 (11739890_at) / Fold change /veh PRSS12 (11739890_at) / RFU BIN1 (11741810_x_at) / Fold change /veh BIN1 (11741810_x_at) / RFU WNT11 (11732464_a_at) / Fold change /veh WNT11 (11732464_a_at) / RFU C10orf10 (11716521_a_at) / Fold change /veh C10orf10 (11716521_a_at) / RFU C5orf56 (11738089_at) / Fold change /veh C5orf56 (11738089_at) / RFU CYB561 (11721691_x_at) / Fold change /veh CYB561 (11721691_x_at) / RFU ANKRD19P (11752326_a_at) / Fold change /veh ANKRD19P (11752326_a_at) / RFU OR2T12 /// OR2T33 /// OR2T8 (11738714_s_at) / Fold change /veh OR2T12 /// OR2T33 /// OR2T8 (11738714_s_at) / RFU VCAN (11748164_a_at) / Fold change /veh VCAN (11748164_a_at) / RFU JSRP1 (11732532_at) / Fold change /veh JSRP1 (11732532_at) / RFU KRTAP10-11 (11738290_x_at) / Fold change /veh KRTAP10-11 (11738290_x_at) / RFU MYO3A (11730013_a_at) / Fold change /veh MYO3A (11730013_a_at) / RFU EBF3 (11725865_a_at) / Fold change /veh EBF3 (11725865_a_at) / RFU CAMK2N1 (11719241_x_at) / Fold change /veh CAMK2N1 (11719241_x_at) / RFU C5orf56 (11738088_a_at) / Fold change /veh C5orf56 (11738088_a_at) / RFU OLFML3 (11715873_a_at) / Fold change /veh OLFML3 (11715873_a_at) / RFU LOC100653217 /// NTM (11731650_a_at) / Fold change /veh LOC100653217 /// NTM (11731650_a_at) / RFU MAPK11 (11762145_a_at) / Fold change /veh MAPK11 (11762145_a_at) / RFU FIZ1 (11724087_x_at) / Fold change /veh FIZ1 (11724087_x_at) / RFU OASL (11726364_x_at) / Fold change /veh OASL (11726364_x_at) / RFU SOX15 (11748057_x_at) / Fold change /veh SOX15 (11748057_x_at) / RFU CD79A (11719716_a_at) / Fold change /veh CD79A (11719716_a_at) / RFU HIST1H1D (11736915_at) / Fold change /veh HIST1H1D (11736915_at) / RFU CASKIN2 (11723855_a_at) / Fold change /veh CASKIN2 (11723855_a_at) / RFU LOC730098 (11760151_x_at) / Fold change /veh LOC730098 (11760151_x_at) / RFU OR4N2 (11742367_at) / Fold change /veh OR4N2 (11742367_at) / RFU PRRT2 (11749266_a_at) / Fold change /veh PRRT2 (11749266_a_at) / RFU SNX32 (11753110_a_at) / Fold change /veh SNX32 (11753110_a_at) / RFU CDHR5 (11726645_a_at) / Fold change /veh CDHR5 (11726645_a_at) / RFU RCAN1 (11760418_a_at) / Fold change /veh RCAN1 (11760418_a_at) / RFU FAM167A (11723789_a_at) / Fold change /veh FAM167A (11723789_a_at) / RFU FAM26E (11764081_at) / Fold change /veh FAM26E (11764081_at) / RFU ISYNA1 (11749810_s_at) / Fold change /veh ISYNA1 (11749810_s_at) / RFU ACY1 (11761880_at) / Fold change /veh ACY1 (11761880_at) / RFU 11764098_at / Fold change /veh 11764098_at / RFU SAMD14 (11745864_x_at) / Fold change /veh SAMD14 (11745864_x_at) / RFU NPB (11741838_a_at) / Fold change /veh NPB (11741838_a_at) / RFU TMPRSS6 (11731388_a_at) / Fold change /veh TMPRSS6 (11731388_a_at) / RFU KRTAP10-2 (11738614_at) / Fold change /veh KRTAP10-2 (11738614_at) / RFU ARHGAP8 /// PRR5-ARHGAP8 (11727945_x_at) / Fold change /veh ARHGAP8 /// PRR5-ARHGAP8 (11727945_x_at) / RFU KRTAP5-7 /// NADSYN1 (11734609_at) / Fold change /veh KRTAP5-7 /// NADSYN1 (11734609_at) / RFU RASL12 (11751679_a_at) / Fold change /veh RASL12 (11751679_a_at) / RFU CDKN2B (11736163_a_at) / Fold change /veh CDKN2B (11736163_a_at) / RFU PRF1 (11729649_at) / Fold change /veh PRF1 (11729649_at) / RFU, ZNF638 /// ZNF638-IT1 / Fold change vs veh, ZNF638 /// ZNF638-IT1 / RFU, PANK3 / Fold change vs veh, PANK3 / RFU, SH3YL1 / Fold change vs veh, SH3YL1 / RFU, ZEB2 / Fold change vs veh, ZEB2 / RFU, NRIP1 / Fold change vs veh, NRIP1 / RFU, PTTG1IP / Fold change vs veh, PTTG1IP / RFU, CAPN2 / Fold change vs veh, CAPN2 / RFU, MED14 / Fold change vs veh, MED14 / RFU, SNORA58 / Fold change vs veh, SNORA58 / RFU, C1orf63 / Fold change vs veh, C1orf63 / RFU, LRRFIP1 / Fold change vs veh, LRRFIP1 / RFU, NDUFAF7 / Fold change vs veh, NDUFAF7 / RFU, SLC12A2 / Fold change vs veh, SLC12A2 / RFU, IBTK / Fold change vs veh, IBTK / RFU, ESF1 / Fold change vs veh, ESF1 / Fold change vs veh, TMEM50B / RFU, TAOK1 / Fold change vs veh, TAOK1 / RFU, ACBD3 / Fold change vs veh, ACBD3 / RFU, TMA16 / Fold change vs veh, TMA16 / RFU, RWDD3 / Fold change vs veh, RWDD3 / RFU, BCAT1 / Fold change vs veh, BCAT1 / RFU, EDEM3 / Fold change vs veh, EDEM3 / RFU, TMEM33 / Fold change vs veh, TMEM33 / RFU, WDR75 / Fold change vs veh, WDR75 / RFU, AHCTF1 / Fold change vs veh, AHCTF1 / RFU, TFRC / Fold change vs veh, TFRC / RFU, ZDHHC17 / Fold change vs veh, ZDHHC17 / RFU, NOM1 / Fold change vs veh, NOM1 / RFU, ARL8B / Fold change vs veh, ARL8B / RFU, ZBTB11 / Fold change vs veh, ZBTB11 / RFU, TAMM41 / Fold change vs veh, TAMM41 / RFU, KIAA1704 /// LOC100996395 / Fold change vs veh, KIAA1704 /// LOC100996395 / RFU, ING1 / Fold change vs veh, ING1 / RFU, TRMT61B / Fold change vs veh, TRMT61B / RFU, FUBP3 / Fold change vs veh, FUBP3 / RFU, TP53 / Fold change vs veh, TP53 / RFU, TNKS2 / Fold change vs veh, TNKS2 / RFU, ZFP14 / Fold change vs veh, ZFP14 / RFU, ACTR2 / Fold change vs veh, ACTR2 / RFU, PPP3R1 / Fold change vs veh, PPP3R1 / RFU, PIK3R1 / Fold change vs veh, PIK3R1 / RFU, HNRNPA1 / Fold change vs veh, HNRNPA1 / RFU, RNF170 / Fold change vs veh, RNF170 / RFU, ZNF28 / Fold change vs veh, ZNF28 / RFU, RNGTT / Fold change vs veh, RNGTT / RFU, OGT / Fold change vs veh, OGT / RFU, BRD1 / Fold change vs veh, BRD1 / RFU, MARS / Fold change vs veh, MARS / RFU, ZNF655 / Fold change vs veh, ZNF655 / RFU, FAHD1 / Fold change vs veh, FAHD1 / RFU, BDP1 / Fold change vs veh, BDP1 / RFU, LRRCC1 / Fold change vs veh, LRRCC1 / RFU, ARID1A / Fold change vs veh, ARID1A / RFU, ZNF146 / Fold change vs veh, ZNF146 / RFU, ZNF330 / Fold change vs veh, ZNF330 / RFU, GPN3 / Fold change vs veh, GPN3 / RFU, C9orf123 / Fold change vs veh, C9orf123 / RFU, N4BP2L2 / Fold change vs veh, N4BP2L2 / RFU, ARFIP1 / Fold change vs veh, ARFIP1 / RFU, FAM179B / Fold change vs veh, FAM179B / RFU, BCL10 / Fold change vs veh, BCL10 / RFU, UHRF1BP1L / Fold change vs veh, UHRF1BP1L / RFU, BET1 / Fold change vs veh, BET1 / RFU, CNOT2 / Fold change vs veh, CNOT2 / RFU, ZNF268 / Fold change vs veh, ZNF268 / Fold change vs veh, ZNF507 / RFU, DGCR2 / Fold change vs veh, DGCR2 / RFU, WDSUB1 / Fold change vs veh, WDSUB1 / Fold change vs veh, HSP90B1 /// MIR3652 / RFU, ADSS / Fold change vs veh, ADSS / RFU, GK / Fold change vs veh, GK / RFU, ZNF148 / Fold change vs veh, ZNF148 / RFU, TAF9 / Fold change vs veh, TAF9 / RFU, SLC1A5 / Fold change vs veh, SLC1A5 / RFU, SLMO2 / Fold change vs veh, SLMO2 / RFU, ABCC4 / Fold change vs veh, ABCC4 / RFU, LOC101060439 /// RAP1B / Fold change vs veh, LOC101060439 /// RAP1B / RFU, RFX7 / Fold change vs veh, RFX7 / RFU, GTPBP10 / Fold change vs veh, GTPBP10 / RFU, CNEP1R1 / Fold change vs veh, CNEP1R1 / RFU, BIVM-ERCC5 /// ERCC5 / Fold change vs veh, BIVM-ERCC5 /// ERCC5 / RFU, ILF3 / Fold change vs veh, ILF3 / RFU 11762660_at / Fold change /veh 11762660_at / RFU VCAN (11757783_s_at) / Fold change /veh VCAN (11757783_s_at) / RFU DDX43 (11728927_at) / Fold change /veh DDX43 (11728927_at) / RFU KRT8 (11758188_x_at) / Fold change /veh KRT8 (11758188_x_at) / RFU NKD1 (11759106_at) / Fold change /veh NKD1 (11759106_at) / RFU SRD5A1 (11742802_a_at) / Fold change /veh SRD5A1 (11742802_a_at) / RFU TPSAB1 /// TPSB2 (11721975_s_at) / Fold change /veh TPSAB1 /// TPSB2 (11721975_s_at) / RFU GSTM3 (11746129_a_at) / Fold change /veh GSTM3 (11746129_a_at) / RFU IL23R (11737362_x_at) / Fold change /veh IL23R (11737362_x_at) / RFU TMEM51 (11727254_a_at) / Fold change /veh TMEM51 (11727254_a_at) / RFU PIWIL2 (11732686_x_at) / Fold change /veh PIWIL2 (11732686_x_at) / RFU ORM1 (11744905_x_at) / Fold change /veh ORM1 (11744905_x_at) / RFU CCDC152 (11743942_at) / Fold change /veh CCDC152 (11743942_at) / RFU ECM1 (11717891_a_at) / Fold change /veh ECM1 (11717891_a_at) / RFU IL23R (11748794_a_at) / Fold change /veh IL23R (11748794_a_at) / RFU TNFAIP8L3 (11732012_x_at) / Fold change /veh TNFAIP8L3 (11732012_x_at) / RFU MBOAT4 (11741988_at) / Fold change /veh MBOAT4 (11741988_at) / RFU 11764193_at / Fold change /veh 11764193_at / RFU TMEM53 (11763286_at) / Fold change /veh TMEM53 (11763286_at) / RFU MAGEB2 (11727129_at) / Fold change /veh MAGEB2 (11727129_at) / RFU TMEM200A (11744735_a_at) / Fold change /veh TMEM200A (11744735_a_at) / RFU CCDC152 (11751479_a_at) / Fold change /veh CCDC152 (11751479_a_at) / RFU FAM211A (11726209_a_at) / Fold change /veh FAM211A (11726209_a_at) / RFU RGS16 (11746705_a_at) / Fold change /veh RGS16 (11746705_a_at) / RFU VCAN (11755009_s_at) / Fold change /veh VCAN (11755009_s_at) / RFU RHOB (11743442_s_at) / Fold change /veh RHOB (11743442_s_at) / RFU RGS16 (11720943_a_at) / Fold change /veh RGS16 (11720943_a_at) / RFU RGS16 (11720944_at) / Fold change /veh RGS16 (11720944_at) / RFU, VPS4B / Fold change vs veh, VPS4B / RFU, CREB1 / Fold change vs veh, CREB1 / RFU, DNAJC13 / Fold change vs veh, DNAJC13 / RFU, GNAQ / Fold change vs veh, GNAQ / RFU, CDK5R1 / Fold change vs veh, CDK5R1 / RFU, ZRANB3 / Fold change vs veh, ZRANB3 / RFU, CUL4A / Fold change vs veh, CUL4A / RFU, CCNY / Fold change vs veh, CCNY / RFU, UFL1 / Fold change vs veh, UFL1 / RFU, COG3 / Fold change vs veh, COG3 / RFU, DIAPH2 / Fold change vs veh, DIAPH2 / RFU, SKA2 / Fold change vs veh, SKA2 / RFU, AFF3 / Fold change vs veh, AFF3 / RFU, LMF1 / Fold change vs veh, LMF1 / RFU, IPO11 / Fold change vs veh, IPO11 / RFU, DFFB / Fold change vs veh, DFFB / RFU, FOXP1 / Fold change vs veh, FOXP1 / RFU, CARD8 / Fold change vs veh, CARD8 / RFU, STRN3 / Fold change vs veh, STRN3 / RFU, ADK / Fold change vs veh, ADK / RFU, RASSF2 / Fold change vs veh, RASSF2 / RFU, WIPF1 / Fold change vs veh, WIPF1 / RFU, LARP1B / Fold change vs veh, LARP1B / RFU, RASA1 / Fold change vs veh, RASA1 / RFU, RB1 / Fold change vs veh, RB1 / RFU, PPFIA1 / Fold change vs veh, PPFIA1 / RFU, MAT2A / Fold change vs veh, MAT2A / RFU, CCT5 / Fold change vs veh, CCT5 / RFU, WDR92 / Fold change vs veh, WDR92 / RFU, CUX1 / Fold change vs veh, CUX1 / RFU, TTC7A / Fold change vs veh, TTC7A / RFU, TMEM135 / Fold change vs veh, TMEM135 / RFU, DEPTOR / Fold change vs veh, DEPTOR / RFU, CPM / Fold change vs veh, CPM / RFU, DNAJB6 / Fold change vs veh, DNAJB6 / RFU, CACNA2D3 / Fold change vs veh, CACNA2D3 / RFU, DTX4 / Fold change vs veh, DTX4 / RFU, TFCP2 / Fold change vs veh, TFCP2 / RFU, GMCL1 /// GMCL1P1 / Fold change vs veh, GMCL1 /// GMCL1P1 / RFU, AEBP2 / Fold change vs veh, AEBP2 / RFU, SNHG1 /// SNORD22 /// SNORD25 /// SNORD26 /// SNORD27 /// SNORD28 /// SNORD29 /// SNORD31 / Fold change vs veh, SNHG1 /// SNORD22 /// SNORD25 /// SNORD26 /// SNORD27 /// SNORD28 /// SNORD29 /// SNORD31 / Fold change (Aza/veh), C12orf56 (ProbeSet 11735607_a_at) / Fold change (ACY-1035/veh), C12orf56 (ProbeSet 11735607_a_at) / Fold change (Aza/veh), FGFR1OP (ProbeSet 11751329_s_at) / Fold change (ACY-1035/veh), FGFR1OP (ProbeSet 11751329_s_at) / Fold change (Aza/veh), VPS36 (ProbeSet 11739960_a_at) / Fold change (ACY-1035/veh), VPS36 (ProbeSet 11739960_a_at) / RFU SYPL1 (11715823_x_at) / Fold change /veh SYPL1 (11715823_x_at) / RFU IGFBP7 (11715501_s_at) / Fold change /veh IGFBP7 (11715501_s_at) / RFU REEP3 (11722064_at) / Fold change /veh REEP3 (11722064_at) / RFU IGLL1 (11728026_x_at) / Fold change /veh IGLL1 (11728026_x_at): dose or concentration left out as unconfirmed
Conditions: ProbeSet 11719185_x_at; LIST B

Nc1ccc(-c2cccs2)cc1NC(=O)c1ccc2c(c1)cc(C1CC1)n2CCN1CCOCC1 [ACY-1035]
Fold change vs veh, N4BP2L2: 1.03
